Source: patent publication US4379159A, “Antiinflammatory 2-substituted-thio-4,5-dihydro-4,5-diaryl-1H-imidazoles” (E. I. Du Pont de Nemours & Company, priority 1980, dated 1983)

Key:
[1] = tested on: adjuvant-induced arthritis in rats; experiment: Established Adjuvant-Induced Arthritis in Rats; format: in vivo, rat (Lewis (Wistar) male rats); conditions: oral gavage once daily 7 days (days 14-20), paw volume on day 21; for ED50: Rattus norvegicus, ED50% for decrease from control paw volume, estimated by inspection of dose-response regression lines
arthritis = conditions: background statement; cited from earlier work
adjuvant arthritis = conditions: background statement; cited from earlier work

CSC1=NC(c2ccc(Cl)cc2)C(c2ccc(Cl)cc2)N1.Cl (centres unmarked) [Example 1, 4,5-Bis(4-chlorophenyl)-4,5-dihydro-2-(methylthio)-1H-imidazole Hydrochloride]
ED50 [1]: 60 mg/kg

C=CCSC1=NC(c2ccc(Cl)cc2)C(c2ccc(Cl)cc2)N1.Cl (centres unmarked) [Example 2, 4,5-Bis(4-chlorophenyl)-4,5-dihydro-2-(allylthio)-1H-imidazole Hydrochloride]
percent reduction in paw volume at the indicated dose ([1]; at 25 mg/kg): 28%

Cl.FC(F)(F)CSC1=NC(c2ccc(Cl)cc2)C(c2ccc(Cl)cc2)N1 (centres unmarked) [Example 3, 4,5-Bis(4-chlorophenyl)-4,5-dihydro-2-(2,2,2-trifluoroethylthio)-1H-imidazole Hydrochloride]
ED50 [1]: 25 mg/kg

c1ccc([C@H]2CN3CCSC3=N2)cc1 [Levamisole, 2,3,5,6-Tetrahydro-6-phenylimidazole-[2,1-b]thiazole]
clinical efficacy as an antiarthritic (arthritis): has shown clinical efficacy | activity in an adjuvant arthritis test (adjuvant arthritis): inactive
